What all share (type): biochemical
The target of one test is Jarid1B (Homo sapiens (Human), UniProt Q9UGL1). As to the kind of experiment: Jarid1B in vitro enzyme inhibition assay (TR-FRET). To be noted: 0.8 nM Jarid1B, 300 nM H3K4me3-biotin peptide, 2 μM alpha-ketoglutaric acid. From the text:
(§1) This assay determines the ability of a test compound to inhibit Jarid1A, Jarid1B, and JMJD2C demethylase activity. Baculovirus expressed Jarid1A (GenBank Accession #NM_001042603, AA1-1090) was purchased from BPS Bioscience (Cat#50110). Baculovirus expressed Jarid1B (GenBank Accession #NM_006618, AA 2-751) was purchased from BPS Bioscience (Cat #50121) or custom made by MolecularThroughput. Baculovirus expressed JMJD2C (GenBank Accession #BC143571, AA 2-372) was purchased from BPS Bioscience (Cat#50105).
(§2) The ability of test compounds to inhibit the activity of Jarid1B was determined in 384-well plate format under the following reaction conditions: 0.8 nM Jarid1B, 300 nM H3K4me3-biotin labeled peptide (Anaspec cat #64357), 2 μM alpha-ketoglutaric acid in assay buffer of 50 mM HEPES, pH7.3, 0.005% Brij35, 0.5 mM TCEP, 0.2 mg/ml BSA, 50 μM sodium L-ascorbate, and 2 μM ammonium iron(II) sulfate. Reaction product was determined quantitatively by TR-FRET after the addition of detection reagent Phycolink Streptavidin-allophycocyanin (Prozyme) and Europium-anti-mono- or di-methylated histone H3 lysine 4 (H3K4me1-2) antibody (PerkinElmer) in the presence of 5 mM EDTA in LANCE detection buffer (PerkinElmer) at a final concentration of 25 nM and 1 nM, respectively.
(§3) The reaction mixture was incubated at room temperature for 30 minutes, and terminated by the addition of 6 μl of 5 mM EDTA in LANCE detection buffer containing 50 nM Phycolink Streptavidin-allophycocyanin and 2 nM Europium-anti-H3K4me1-2 antibody. Plates were read by EnVisionMultilabel Reader in TR-FRET mode (excitation at 320 nm, emission at 615 nm and 665 nm) after 1 hour incubation at room temperature. A ratio was calculated (665/615) for each well and fitted to determine inhibition constant (IC50).

Another test deals with Jarid1A (Homo sapiens (Human), UniProt P29375). As to the kind of experiment: Jarid1A in vitro enzyme inhibition assay (TR-FRET). To be noted: 1 nM Jarid1A, 300 nM H3K4me3-biotin peptide, 2 μM alpha-ketoglutaric acid.
Description: as §1
as §2, with “The enzymatic assay of Jarid1A activity is based upon Time Resolved-Fluorescence Resonance Energy Transfer (TR-FRET) detection. The” for “The”, “Jarid1A” for “Jarid1B”, “1” for “0.8”, “Jarid1A,” for “Jarid1B,”
as §3
For orientation: In TR-FRET formats the signal depends on donor and acceptor labels being close together.

In the next test the target is JMJD2C (Homo sapiens (Human), UniProt Q9H3R0). As to the kind of experiment: JMJD2C in vitro enzyme inhibition assay (TR-FRET). As to conditions: 0.3 nM JMJD2C, 300 nM H3K9me3-biotin peptide, 2 μM alpha-ketoglutaric acid. A digest of the protocol: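 Baculovirus-expressed JMJD2C (AA 2-372), 0.3 nM, with 300 nM biotin-H3K9me3 peptide and 2 μM alpha-ketoglutarate in pH 7.3 HEPES buffer with ascorbate and Fe(II); 30 min at room temperature.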
JMJD2C, sequence (Q9H3R0 2-372): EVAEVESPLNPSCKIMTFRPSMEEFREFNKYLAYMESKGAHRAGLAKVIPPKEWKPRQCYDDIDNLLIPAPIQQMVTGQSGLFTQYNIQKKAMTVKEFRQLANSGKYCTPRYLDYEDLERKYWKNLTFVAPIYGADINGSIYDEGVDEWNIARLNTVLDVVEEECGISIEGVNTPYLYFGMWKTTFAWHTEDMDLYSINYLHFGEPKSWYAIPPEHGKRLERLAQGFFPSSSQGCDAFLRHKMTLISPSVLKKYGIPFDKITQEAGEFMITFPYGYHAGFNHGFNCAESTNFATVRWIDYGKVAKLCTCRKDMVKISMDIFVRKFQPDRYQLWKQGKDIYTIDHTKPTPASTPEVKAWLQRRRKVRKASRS

Jarid1B, sequence (Q9UGL1 2-751): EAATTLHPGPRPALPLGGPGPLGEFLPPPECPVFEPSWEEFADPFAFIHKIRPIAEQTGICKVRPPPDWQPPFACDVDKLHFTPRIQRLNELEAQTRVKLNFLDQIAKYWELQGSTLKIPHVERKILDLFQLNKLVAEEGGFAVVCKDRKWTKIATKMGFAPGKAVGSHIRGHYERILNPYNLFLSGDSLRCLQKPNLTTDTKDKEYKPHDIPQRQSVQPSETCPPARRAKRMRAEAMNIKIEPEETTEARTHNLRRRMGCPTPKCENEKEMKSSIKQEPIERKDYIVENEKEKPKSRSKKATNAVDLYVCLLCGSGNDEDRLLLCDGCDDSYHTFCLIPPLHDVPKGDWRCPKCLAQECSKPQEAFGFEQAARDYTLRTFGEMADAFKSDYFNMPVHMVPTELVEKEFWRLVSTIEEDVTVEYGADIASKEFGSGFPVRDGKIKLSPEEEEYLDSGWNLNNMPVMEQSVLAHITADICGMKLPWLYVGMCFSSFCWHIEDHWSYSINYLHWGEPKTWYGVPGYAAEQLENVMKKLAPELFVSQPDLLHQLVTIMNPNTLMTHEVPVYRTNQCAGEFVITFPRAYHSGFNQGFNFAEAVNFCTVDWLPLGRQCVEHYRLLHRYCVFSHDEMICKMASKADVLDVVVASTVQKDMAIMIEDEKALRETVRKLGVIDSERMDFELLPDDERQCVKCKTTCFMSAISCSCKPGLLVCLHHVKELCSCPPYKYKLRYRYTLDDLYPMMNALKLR
Jarid1A, sequence (P29375 1-1090): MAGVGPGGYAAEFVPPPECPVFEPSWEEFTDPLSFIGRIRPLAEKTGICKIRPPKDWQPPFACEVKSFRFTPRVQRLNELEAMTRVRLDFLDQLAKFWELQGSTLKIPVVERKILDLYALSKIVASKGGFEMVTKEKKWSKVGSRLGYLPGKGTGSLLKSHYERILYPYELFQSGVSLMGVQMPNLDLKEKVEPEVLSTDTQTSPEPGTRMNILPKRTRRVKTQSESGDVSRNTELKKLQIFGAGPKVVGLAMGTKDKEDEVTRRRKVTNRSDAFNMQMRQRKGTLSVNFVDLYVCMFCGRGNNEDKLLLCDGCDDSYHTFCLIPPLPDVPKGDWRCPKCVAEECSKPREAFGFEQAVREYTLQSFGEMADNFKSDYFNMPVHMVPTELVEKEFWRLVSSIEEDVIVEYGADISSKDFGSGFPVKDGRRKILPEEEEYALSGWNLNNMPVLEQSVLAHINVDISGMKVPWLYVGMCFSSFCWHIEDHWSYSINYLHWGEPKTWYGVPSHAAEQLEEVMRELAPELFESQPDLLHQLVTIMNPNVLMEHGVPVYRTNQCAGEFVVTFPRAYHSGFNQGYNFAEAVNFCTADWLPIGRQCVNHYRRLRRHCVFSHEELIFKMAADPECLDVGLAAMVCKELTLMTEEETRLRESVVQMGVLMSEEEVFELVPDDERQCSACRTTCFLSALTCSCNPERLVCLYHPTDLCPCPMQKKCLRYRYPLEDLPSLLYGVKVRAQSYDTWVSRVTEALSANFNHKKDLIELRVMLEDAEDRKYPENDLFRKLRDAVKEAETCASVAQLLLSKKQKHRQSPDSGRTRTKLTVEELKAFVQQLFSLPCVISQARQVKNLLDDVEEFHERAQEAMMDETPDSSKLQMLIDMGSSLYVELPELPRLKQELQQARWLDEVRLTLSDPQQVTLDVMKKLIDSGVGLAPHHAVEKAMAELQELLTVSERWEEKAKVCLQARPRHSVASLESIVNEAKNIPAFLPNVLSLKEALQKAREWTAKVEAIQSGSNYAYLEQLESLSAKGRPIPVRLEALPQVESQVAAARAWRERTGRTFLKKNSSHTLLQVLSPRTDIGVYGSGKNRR

For orientation: IC50 means the concentration that gives 50% inhibition. High values mean weaker potency in that assay, low ones greater potency in that assay. With `O=C(O)c1ccncc1NCc1cc2ccccc2o1` [Example 41, 3-[(1-benzofuran-2-ylmethyl)amino]pyridine-4-carboxylic acid], the IC50 against Jarid1B, at Jarid1A and at JMJD2C was at most 100 nM in each case.

Take `O=C(O)c1ccncc1NCC12CC3CC(CC(C3)C1)C2` [Example 42, 3-[(adamantan-1-ylmethyl)amino]pyridine-4-carboxylic acid]: the half-inhibitory concentration (IC50) against Jarid1B is 100 to 1000 nM; against Jarid1A, 100 to 1000 nM; on JMJD2C, at most 100 nM.

Consider `O=C(O)c1ccncc1NCC1CCOc2ccccc21` (stereo not drawn) [Example 58, 3-[(3,4-dihydro-2H-chromen-4-ylmethyl)amino]pyridine-4-carboxylic acid], for which the IC50 on Jarid1B, at Jarid1A and against JMJD2C was at most 100 nM throughout.

`Cc1ccc(CNc2cnccc2C(=O)O)cc1` [Example 24, 3-[(4-methylbenzyl)amino]pyridine-4-carboxylic acid]: the half-maximal inhibitory concentration (IC50) at Jarid1B, against Jarid1A and on JMJD2C was at most 100 nM each time.

`O=C(O)c1ccncc1NCc1ccccc1Oc1ccccc1` [Example 33, 3-[(2-phenoxybenzyl)amino]pyridine-4-carboxylic acid]: the IC50 at Jarid1B was at most 100 nM; against Jarid1A, at most 100 nM; against JMJD2C it was 100 to 1000 nM.

As to `O=C(O)c1ccncc1NCC1CCCc2ccccc21` (stereo not drawn) [Example 46, 3-[(1,2,3,4-tetrahydronaphthalen-1-ylmethyl)amino]pyridine-4-carboxylic acid], the half-maximal inhibitory concentration (IC50) against Jarid1B was at most 100 nM; against Jarid1A, at most 100 nM; on JMJD2C it was 100 to 1000 nM.

As to `O=C(O)c1ccncc1NCc1ccc(C(F)(F)F)cc1` [Example 8, 3-{[4-(trifluoromethyl)benzyl]amino}pyridine-4-carboxylic acid], the IC50 on Jarid1B, against Jarid1A and against JMJD2C was at most 100 nM in each case.

In the case of `COc1ccc2c(c1)CCCC2CNc1cnccc1C(=O)O` (stereo not drawn) [Example 60, 3-{[(6-methoxy-1,2,3,4-tetrahydronaphthalen-1-yl)methyl]amino}pyridine-4-carboxylic acid], the values for the IC50 against Jarid1B, against Jarid1A and against JMJD2C were at most 100 nM, at most 100 nM and 100 to 1000 nM, respectively.

As to `O=C(O)c1ccncc1NCc1cnccc1C1CC1` [Example 31, 3-{[(4-cyclopropylpyridin-3-yl)-methyl]amino}pyridine-4-carboxylic acid], the half-inhibitory concentration (IC50) against Jarid1B, against Jarid1A and on JMJD2C was at most 100 nM throughout.

Regarding `O=C(O)c1ccncc1NCc1ccc(Cl)cc1C1CC1` [Example 26, 3-[(4-chloro-2-cyclopropylbenzyl)amino]pyridine-4-carboxylic acid], the IC50 against Jarid1B was at most 100 nM; on Jarid1A, at most 100 nM; against JMJD2C, 100 to 1000 nM.

Take `Nc1ccccc1CNc1cnccc1C(=O)O` [Example 22, 3-[(2-aminobenzyl)amino]pyridine-4-carboxylic acid]: the concentration for half-maximal inhibition (IC50) at Jarid1B, at Jarid1A and against JMJD2C was at most 100 nM throughout.

Take `O=C(O)c1ccncc1NCc1cccc(OCC2CC2)c1` [Example 37, 3-{[3-(cyclopropylmethoxy)benzyl]amino}pyridine-4-carboxylic acid]: the IC50 against Jarid1B is at most 100 nM; at Jarid1A it was 100 to 1000 nM; against JMJD2C it was 100 to 1000 nM.

Source of the values: patent US9611221B2, “Histone demethylase inhibitors” (CELGENE QUANTICEL RESEARCH, INC., priority 2012, dated 2017).
